From patent US12427142B2, “Combination comprising alpelisib and 6-(2,4-dichlorophenyl)-5-[4-[(3S)-1-(3-fluoropropyl)pyrrolidin-3-yl[oxyphenyl]-8,9-dihydro-7H-benzo[7]annulene-2-carboxylic acid” (Sanofi, priority 2020, dated 2025)
Like-named read-outs stand apart in the source and are kept apart here.

What was measured:
[1] = tested on: MCF7-Y537S human breast cancer cell line xenograft; conditions: experiment 1, compound (1) 20 mg/kg BID, alpelisib 25 mg/kg QD; for Tumor volume changes from baseline, Median: PO; for Median % of regressions on day 22 / ΔT/ΔC in % at day 22 / Regressions Complete / Regressions Partial: PO days 0 to 22; for Regressions Complete / Regressions Partial: animals/group; for Anti-tumor effect on tumor growth (in words) / Biological Interpretation: day 22
Protocol: In the present study, the anti-tumor efficacy of 6-(2,4-dichlorophenyl)-5-[4-[(3S)-1-(3-fluoropropyl)pyrrolidin-3-yl]oxyphenyl]-8,9-dihydro-7H-benzo[7]annulene-2-carboxylic acid (“compound (1)”), combined with alpha-specific phosphoinositide 3-kinase (PI3K) inhibitor alpelisib, was investigated after 22 day treatment against a subcutaneous MCF7-Y537S human breast cancer cell line xenograft in female nude mice.
The treated groups included compound (1) at 20 mg/kg alone, alpelisib at 25 mg/kg alone, and the combination of compound (1) and alpelisib at the same dose and regime.
Compound (1) was orally dosed twice a day (BID) and alpelisib was orally dosed once a day (QD) for 22 days. Anti-tumor efficacy was evaluated by tumor volume measurement.
Female BALB/c nude mice were obtained from Shanghai Sino-British SIPPR/BK Laboratory Animal Co., LTD (Shanghai, CHINA). Animals were allowed to acclimate for at least four days before the study enrollment. Mice were 6 to 8 weeks old and weighed between 18 and 24 grams at the beginning of the treatments. These animals were housed under conditions outlined in the guidelines approved by the Institutional Animal Care and Use Committee (IACUC) of WuXi AppTec following the guidance of the Association for Assessment and Accreditation of Laboratory Animal Care (AAALAC).
Parental MCF7 cells were obtained from the American Type Culture Collection (ATCC® HTB-22™). MCF7-Y537S (ESR1) cell line was MCF7 cells expressing the ER.Y537S variant that was generated by Sanofi Biology Discovery Group. Y537S mutation was introduced in ESR1 construct (GenBank NM_000125.3) by site directed mutagenesis (Toy W. et al., Cancer Discovery, 2017, 7, 277-287). The construct was transfected in MCF7 cells which were selected for their growth in absence of estradiol. MCF-Y537S is an ESR1 mutation that confers estrogen-independent activity to ERα (Estrogen Receptor alpha) and contributes to endocrine resistant disease (Robinson D. R. et al., Nat Genet., 2013, 45 (12), 1446-1451). The cells were grown in Eagle's Minimum Essential Medium (EMEM) supplemented with 10% fetal bovine serum (FBS), human Insulin, in 5% CO2 at 37° C. The cells were harvested in 0.25% Trypsin EDTA and washed by Phosphate Buffered Saline (PBS) and re-suspended in PBS with 75% Matrigel. The cells (20×10^6 cells/per mouse) were subcutaneously (SC) implanted into the right flank of female nude mice.
When the MCF7-Y537S tumors were established, the tumors were reserved as tumor stocks for fragment implantation. The tumors were serially propagated through fragment tissue transplantation subcutaneously. The fragment tumor tissues were subcutaneously implanted into the right flank of female nude mice. 28 mice were assigned in this experiment.
Alpelisib (commercially available, marketed under the tradename PIQRAY®) was formulated in 100% of HPMC (hydroxypropyl-methylcellulose)/TWEEN80 0.5/0.1% in water. Compound (1) was prepared in 5% Solutol HS15 (purchased from Sigma) at pH 3.0.
Dose volume for compound (1) and alpelisib for oral administration: 10 ml/kg by oral gavage.
Doses: compound (1) at 20 mg/kg and alpelisib at 25 mg/kg in the above volume.
The animals required for experiment (plus extra) were pooled and implanted with MCF7-Y537S tumor fragment tissues. […] Treatments of compound (1) and alpelisib were initiated on day 0. Compound (1) was orally administered at 20 mg/kg BID (8 hours apart) and alpelisib was orally administered at 25 mg/kg QD, for 22 days. Animal body weight was assessed daily.
The dosages are expressed in mg/kg and based on daily body weight per animal. Vehicle treated animals were used as controls. Mice were checked daily for adverse clinical reactions. Individual mice were weighed daily until the end of the experiment.

[2] = tested on: MCF7-Y537S human breast cancer cell line xenograft; format: in vivo; conditions: experiment 2, compound (1) 10 mg/kg BID, alpelisib 25 mg/kg QD; for Tumor volume changes from baseline, Median: PO; for Median % of regressions on day 28 / ΔT/ΔC in % at day 28 / Regressions Complete / Regressions Partial: PO days 0 to 28; for Regressions Complete / Regressions Partial: animals/group; for Anti-tumor effect on tumor growth (in words) / Biological Interpretation: day 28

Compound | Tumor volume changes from baseline, Median ([1]; Day 4) [mm^3] | Tumor volume changes from baseline, Median ([1]; Day 8) [mm^3] | Tumor volume changes from baseline, Median ([1]; Day 11) [mm^3] | Tumor volume changes from baseline, Median ([1]; Day 15) [mm^3] | Tumor volume changes from baseline, Median ([1]; Day 18) [mm^3] | Tumor volume changes from baseline, Median ([1]; Day 22) [mm^3] | Median % of regressions on day 22 [1] [%] | ΔT/ΔC in % at day 22 [1] [%] | Regressions Complete [1] | Regressions Partial [1] | Anti-tumor effect on tumor growth (in words) [1] | Biological Interpretation [1] | Tumor volume changes from baseline, Median ([2]; Day 3) [mm^3] | Tumor volume changes from baseline, Median ([2]; Day 7) [mm^3] | Tumor volume changes from baseline, Median ([2]; Day 10) [mm^3] | Tumor volume changes from baseline, Median ([2]; Day 14) [mm^3] | Tumor volume changes from baseline, Median ([2]; Day 17) [mm^3] | Tumor volume changes from baseline, Median ([2]; Day 21) [mm^3] | Tumor volume changes from baseline, Median ([2]; Day 24) [mm^3] | Tumor volume changes from baseline, Median ([2]; Day 28) [mm^3] | also measured
Cc1nc(NC(=O)N2CCC[C@H]2C(N)=O)sc1-c1ccnc(C(C)(C)C(F)(F)F)c1 [Alpelisib] | 68.0 | 102.0 | 163.0 | 262.0 | 315.0 | 491.0 | 0 | 46 | 0/7 | 0/7 | did not induce statistically significant anti-tumor efficacy | Inactive | 7.0 | −9.0 | −17.0 | 44.0 | 121.5 | 211.0 | 245.5 | 299.5 | Body weight loss ([2]; 28 days): no significant body weight loss; Tolerability ([2]; 28 days): well tolerated; Median % of regressions on day 28 [2]: 0%; ΔT/ΔC in % at day 28 [2]: 66%; Regressions Complete [2]: 0/8; Regressions Partial [2]: 0/8; Anti-tumor effect on tumor growth (in words) [2]: statistically significant anti-tumor efficacy; Biological Interpretation [2]: inactive
O=C(O)c1ccc2c(c1)CCCC(c1ccc(Cl)cc1Cl)=C2c1ccc(O[C@H]2CCN(CCCF)C2)cc1 [Compound (1), 6-(2,4-dichlorophenyl)-5-[4-[(3S)-1-(3-fluoropropyl)pyrrolidin-3-yl]oxyphenyl]-8,9-dihydro-7H-benzo[7]annulene-2-carboxylic acid] | 43.0 | 121.0 | 214.0 | 360.0 | 392.0 | 501.0 | 0 | 47 | 0/7 | 0/7 | no statistically significant anti-tumor effect | Inactive | 9.0 | 36.0 | 48.0 | 62.5 | 92.0 | 167.5 | 189.5 | 166.5 | Unscheduled death (Day of death) ([1]; PO for 22 days, deaths/animals): 0/7; Median % of regressions on day 28 [2]: 0%; ΔT/ΔC in % at day 28 [2]: 37%; Regressions Complete [2]: 0/8; Regressions Partial [2]: 0/8; Unscheduled death (Day of death) ([2]; PO for 28 days, deaths/animals): 0/8; Anti-tumor effect on tumor growth (in words) [2]: statistically significant anti-tumor effect; Biological Interpretation [2]: active
